This series is described as follows: IV bolus PK of NPT-2042 in dog. The format is in vivo. On the procedure: Assays were performed to determine absolute bioavailability of NPT2042 in two species: dog and rat. The calculation of absolute bioavailability depends on four inputs: the areas under the curves (AUC) for oral and IV, and the oral and IV doses.
Testing was conducted to determine AUC for an IV dose in dog.
The same two dogs were each dosed 2042 IV at 10 mg/kg.
Table 8 provides Noncompartmental Parameters for NPT-2042 for 10 mg/kg Bolus Dosing of NPT-2042 in Dogs (n=2).

Where [1] appears, read: NPT-2042, dog, IV bolus 10 mg/kg, animals 1201A, 1501A, Mean, 10 mg/kg.

“And” between values parts separate entries of the source, which are not always exact repeats. Equal entries are not always repeated. Where two headings read alike, the source gives them in different places.

Turning to `CCCCNc1cc(C(=O)N(Cc2ccccc2)Cc2ccccc2)cc(S(N)(=O)=O)c1Oc1ccccc1` [NPT-2042, N,N-Dibenzyl 3-Aminosulfonyl-5-butylamino-4-phenoxybenzamide], under setting [1], the “C0 (back-extrapolated concentration)” value is 5680 ng/mL and 6440 ng/mL; the “CL (total body clearance)” value was 19.5 mL/min/kg and 16.2 mL/min/kg; the time to peak (Tmax) was found to be 4.98 min; the “Vz (volume of distribution)” value was 6.44 L/kg and 6.54 L/kg. Moreover, the “t½ (terminal-phase half-life)” value under setting [1] was 3.82 h and 4.67 h. The “Plasma NPT-2042 concentrations (in words)” value (dog, IV bolus 10 mg/kg) was “high and still quantifiable at 24 hours after dosing”. For the same compound, the Diuresis result (dog, IV bolus 10 mg/kg NPT-2042) is “lack of diuresis”. Moreover, the “Decay profile after bolus dosing” value (dog, IV bolus 10 mg/kg, log-linear plots) was “multi-exponential decay”. Also, under “dog, plasma, iv, 10 mg/kg, NPT-2042, dog, IV bolus 10 mg/kg, animals 1201A, 1501A, Mean”, the AUC(0-inf) worked out at 8560 ng·h/mL. The C0 (dog, plasma, iv, 10 mg/kg, NPT-2042, dog, IV bolus 10 mg/kg, animals 1201A, 1501A, Mean, read-out: C0 (back-extrapolated concentration)) was 6060 ng/mL. In addition, the clearance (dog, plasma, iv, 10 mg/kg, NPT-2042, dog, IV bolus 10 mg/kg, animals 1201A, 1501A, Mean, read-out: CL (total body clearance) (converted)) was 17.8 mL/min/kg. Further, the Cmax (dog, plasma, iv, 10 mg/kg, NPT-2042, dog, IV bolus 10 mg/kg, animals 1201A, 1501A, Mean, read-out: Cmax) stood at 5210 ng/mL. In addition, the Tmax (dog, plasma, iv, 10 mg/kg, NPT-2042, dog, IV bolus 10 mg/kg, animals 1201A, 1501A, Mean, read-out: Tmax) is 4.8 min. Besides, the Vd (dog, plasma, iv, 10 mg/kg, NPT-2042, dog, IV bolus 10 mg/kg, animals 1201A, 1501A, Mean, read-out: Vz (volume of distribution)) turned out to be 6.49 L/kg. The half-life (dog, plasma, iv, 10 mg/kg, NPT-2042, dog, IV bolus 10 mg/kg, animals 1201A, 1501A, Mean, read-out: t½ (terminal-phase half-life) (converted)) was 4.25 h. Further, the concentration at 0.08 h (dog, plasma, iv, 10 mg/kg, dog, IV bolus 10 mg/kg, animals 1201A, 1501A, Mean, read-out: Plasma NPT-2042 concentration, Time 0.08 h) worked out at 5560 ng/mL. The concentration at 1 h (dog, plasma, iv, 10 mg/kg, dog, IV bolus 10 mg/kg, animals 1201A, 1501A, Mean, read-out: Plasma NPT-2042 concentration, Time 1.00 h) was found to be 2240 ng/mL. Besides, under “dog, plasma, iv, 10 mg/kg, dog, IV bolus 10 mg/kg, animals 1201A, 1501A, Mean, read-out: Plasma NPT-2042 concentration, Time 2.00 h”, the concentration at 2 h worked out at 1230 ng/mL. Also, under “dog, plasma, iv, 10 mg/kg, dog, IV bolus 10 mg/kg, animals 1201A, 1501A, Mean, read-out: Plasma NPT-2042 concentration, Time 4.00 h”, the concentration at 4 h is 688 ng/mL. Moreover, the concentration at 6 h (dog, plasma, iv, 10 mg/kg, dog, IV bolus 10 mg/kg, animals 1201A, 1501A, Mean, read-out: Plasma NPT-2042 concentration, Time 6.00 h) was 326 ng/mL. For the same compound, the concentration at 8 h (dog, plasma, iv, 10 mg/kg, dog, IV bolus 10 mg/kg, animals 1201A, 1501A, Mean, read-out: Plasma NPT-2042 concentration, Time 8.00 h) came out at 182 ng/mL. For the same compound, under “dog, hepatic blood flow about 1.5 L/h/kg”, the “CL as fraction of hepatic blood flow” value is “about ⅔”.

(Values after patent US20230293469A1, “NOVEL PHARMACEUTICAL COMPOSITIONS” (NEUROPRO THERAPEUTICS, INC., priority 2020, published 2023).)
